Experimental findings from patent publication US10729810B2, “Methods, systems, and compositions for promoting bone growth” (Cayman Chemical Company, Inc., priority 2013, dated 2020) are described below.

The test system of one assay is rat calvarial defect. The assay is described as follows: Rat calvarial defect model, drug-cement loaded into intact demineralized bone matrix. As to conditions: 5.0 mm defect; 10 mg/gm of cement; four weeks; FIG. 4. It counts as in vivo, female Sprague Dawley rats. The method, then:
Bone defects are created by removal of bone from the cranium of female Sprague Dawley rats by a bone trephine (cranial defect). Cranial defects are 5.0 mm in diameter and the cranium approximately 1 mm thick.
EXAMPLE 2E′ is delivered inside calcium phosphate cement that, after loading with drug set inside three voids each of approximately 1.0 mm in diameter drilled into a solid demineralized bone matrix circular block of 5.0 mm in diameter and 1 mm thickness. EXAMPLE 2E′ is tested at 10 mg/gm of cement. A negative control group treated with dosing matrix containing no drug (Vehicle) is also included in the study.
Dosing solutions are made from a 5 mg/ml EXAMPLE 2E′ stock which is made by dissolving 2.08 mg of neat EXAMPLE 2E′ in 416 μl of 100% ethanol.
The volume of each dosing void is π*r^2*matrix thickness=3.14*0.5^2*1=0.8 μl. Thus a 5 mm solid demineralized matrix with three voids filled with cement contains 2.4 μl of loading cement. The cement that is used weighs 107 mg for 100 μl volume. Thus 2.4 ul of volume is occupied by 2.6 mg of cement. A 10 mg/gm dosing cement provides 26 ug of EXAMPLE 2E′ for each 5 mm intact demineralized bone matrix block. […]
The area measured each week is compared to that of the first week and the degree of repair calculated by the following formula: (original area−current area)/original area*100

A further assay relates to osteoporotic femur. Put plainly: Bone density of osteoporotic femur after osteotomy with drug-cement insert in ovariectomized rats. It counts as in vivo, Female Sprague Dawley rats. As to conditions: 10 mg/gm cement insert; three weeks; FIG. 5. The method, then: Dosing solutions are made from a 5 mg/ml Example 2E' stock which is made by dissolving 2.08 mg of neat Example 2E' in 416 μl of 100% ethanol. The dosing solution for Example 2E' was made by adding 44.4 μL of the 5 mg/ml stock to 22.2 mg of calcium phosphate cement powder. The Vehicle dosing solution was made by adding 50.4 μl of ethanol containing no Example 2E' to 25.2 mg of calcium phosphate cement powder. After the ethanol has been vented off, the cement is wetted with a setting solution and mixed thoroughly for 1 minute as the cement begins to set. The cement is separated into five aliquots and placed on a glass microscope slide. […] After obtaining the CT image the cross sectional density of the bone 3 mm dorsal to the implant site is measured in three places and the measurements averaged. The density of the phantom is measured at the same time and is compared to the phantom measurement on week 0. […] For example the density of the femur of a vehicle treated rat imaged on week 0 is measured at 3028, 3597 and 3329 units (average=3318) and the phantom measured 4209 units. […] The relative density on bone at week 3 compared to week 0 is then calculated as: average week 3normalized/average week 0*100=3378/3318*100=101.8% The mean change in bone density of both groups after three weeks of treatment is shown in FIG. 5. […]

Regarding `CCC#CC[C@H](C)[C@H](O)/C=C/[C@H]1CCC(=O)N1CCCCCCC(=O)O` [2E′, 7-((R)-2-((3S,4S,E)-3-hydroxy-4-methylnon-1-en-6-yn-1-yl)-5-oxopyrrolidin-1-yl)heptanoic acid], in the assay with rat calvarial defect, the “Healing of a calvarial bone defect, loaded into intact demineralized bone matrix” value is recorded as “Accelerated Healing”. Besides, the “Bone density of osteoporotic femur” value in the assay on osteoporotic femur is given as “Increased Bone Density”.
